Source: US20250382344A1, “Soluble GLP1/GIP/NPY2 Receptor Triple Agonists” (Boehringer Ingelheim International GmH, priority 2024, published 2025)
Where two headings read alike, the source gives them in different places.

Tests used:
[1] = Solubility in 0.1 M phosphate buffer at pH 7; format: physicochemical; conditions: 0.1 M phosphate buffer at pH 7, 10 mg/mL final peptide concentration, shaking 2 hours at room temperature, peptides as TFA-salts; measured sample pH 6.5-7.0
[2] = biological target: T1, hNPY2R (Homo sapiens, UniProt P49146); assay: hNPY2R CreLuc assay in 0.5% and 100% plasma (HEK-293 CRE-luciferase reporter cells); format: cell-based; conditions: HEK-293 reporter cells
T1 construct: expressed in transfected cells; host or cells: HEK-293 CRE-luciferase reporter cells
T1 sequence (P49146 1-381): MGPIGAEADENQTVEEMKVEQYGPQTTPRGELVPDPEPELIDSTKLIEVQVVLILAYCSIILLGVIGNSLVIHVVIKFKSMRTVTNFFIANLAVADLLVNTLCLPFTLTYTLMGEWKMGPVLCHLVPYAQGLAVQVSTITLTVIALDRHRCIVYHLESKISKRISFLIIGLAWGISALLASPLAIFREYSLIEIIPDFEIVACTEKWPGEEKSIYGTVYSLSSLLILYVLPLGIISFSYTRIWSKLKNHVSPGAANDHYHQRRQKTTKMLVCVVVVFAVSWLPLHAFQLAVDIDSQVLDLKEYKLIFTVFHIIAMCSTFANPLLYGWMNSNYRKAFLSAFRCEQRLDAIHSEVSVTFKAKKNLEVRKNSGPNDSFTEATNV
Source text: CHO and HEK-293 recombinant cell lines express a luciferase reporter gene under control of the CAMP responsive element (CRE). As a second recombinant protein the GLP-1 and NPY2 receptors were expressed in the reporter gene HEK cells, and the GIP receptor was expressed in the reporter gene CHO cells, respectively. Stimulation of these recombinant cells with an agonist leads to an increase of intracellular CAMP levels. In the presence of CAMP, the transcription factor CRE binding protein (CREB) binds to the CRE and to the CREB binding protein (CBP), which leads to transcription of the luciferase reporter gene. Peptides upon serial-dilution in 100% DMSO were transferred into 384-well assay plates with 5 μl pre-dispensed assay buffer (1×HBSS, 20 mM HEPES, pH7.4 supplemented with 0.5% human plasma) using acoustic dispensing on a Labcyte ECHO. Cryo-preserved transgenic reporter gene cells were thawed in assay buffer. 20 μl (10.000 cells/well) were added to the plate with the peptides and incubated for 4 hours at 37° C. in a humidified incubator. Following incubation, assay plates are equilibrated to room temperature, followed by addition of 25 μl of Bright-Glo™ Luciferase reagent, incubation at room temperature for 10 minutes and analysis of luminescence (Envision Reader). […] EC50 values were calculated by non-linear regression using sigmoid concentration-response with variable slope.
The same assays were run in the presence of 100% plasma with no additional buffer constituents.

[3] = biological target: T2, hGIPR (Homo sapiens, UniProt P48546); assay: hGIPR CreLuc assay in 0.5% and 100% plasma (CHO CRE-luciferase reporter cells); format: cell-based; conditions: 0.5% human plasma, read-out: hGIPR 0.5% hP
T2 construct: expressed in transfected cells; host or cells: CHO CRE-luciferase reporter cells
T2 sequence (P48546 22-466): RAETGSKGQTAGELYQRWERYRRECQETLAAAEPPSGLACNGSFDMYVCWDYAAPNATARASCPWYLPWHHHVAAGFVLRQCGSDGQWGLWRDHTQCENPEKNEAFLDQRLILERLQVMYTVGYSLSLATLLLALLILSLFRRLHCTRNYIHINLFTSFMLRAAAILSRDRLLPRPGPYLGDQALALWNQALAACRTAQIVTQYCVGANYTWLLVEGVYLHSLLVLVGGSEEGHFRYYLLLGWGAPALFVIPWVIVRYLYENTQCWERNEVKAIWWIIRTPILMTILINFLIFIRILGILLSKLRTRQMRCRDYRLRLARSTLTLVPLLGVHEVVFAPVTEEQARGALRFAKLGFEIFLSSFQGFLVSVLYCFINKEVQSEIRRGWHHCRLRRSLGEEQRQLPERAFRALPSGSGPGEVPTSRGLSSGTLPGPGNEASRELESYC

[4] = 100% human plasma, read-out: hNPY2R 100% hP
[5] = 0.5% human plasma, read-out: hNPY2R 0.5% hP

SMILES: CC[C@H](C)[C@H](NC(=O)[C@H](CC(C)C)NC(=O)[C@H](Cc1c[nH]cn1)NC(=O)[C@H](CCCNC(=N)N)NC(=O)[C@@H](NC(=O)[C@H](Cc1ccccc1)NC(=O)[C@H](C)NC(=O)C(C)(C)NC(=O)[C@H](CCC(N)=O)NC(=O)[C@H](C)NC(=O)[C@H](CCC(N)=O)NC(=O)[C@H](CCCCN)NC(=O)[C@H](CCC(=O)O)NC(=O)[C@H](CC(C)C)NC(=O)C(C)(C)NC(=O)[C@@H](NC(=O)[C@H](CO)NC(=O)[C@H](Cc1ccc(O)cc1)NC(=O)[C@H](CC(=O)O)NC(=O)[C@H](CO)NC(=O)[C@@H](NC(=O)[C@H](Cc1ccccc1)NC(=O)[C@@H](NC(=O)CNC(=O)[C@H](CCC(=O)O)NC(=O)C(C)(C)NC(=O)[C@@H](N)Cc1ccc(O)cc1)[C@@H](C)O)[C@@H](C)O)[C@@H](C)CC)C(C)C)C(=O)N[C@@H](CC(N)=O)C(=O)N[C@@H](CCCCNC(=O)[C@@H](N)CCCCNC(=O)CC[C@H](NC(=O)CC[C@H](NC(=O)CC[C@H](NC(=O)CC[C@H](NC(=O)CC[C@H](NC(=O)CC[C@H](NC(=O)CCCCCCCCCCCCCCCCC(=O)O)C(=O)O)C(=O)O)C(=O)O)C(=O)O)C(=O)O)C(=O)O)C(=O)N[C@@H](Cc1c[nH]c2ccccc12)C(=O)N[C@H](C(=O)N[C@@H](CCCNC(=N)N)C(=O)N[C@@H](CCC(N)=O)C(=O)N[C@@H](CCCNC(=N)N)C(=O)N[C@@H](Cc1ccc(O)cc1)C(N)=O)[C@@H](C)O [Compound 172, Y-Aib-E-G-T-F-T-S-D-Y-S-I-Aib-L-E-K-Q-A-Q-Aib-A-F-V-R-H-L-I-N-K(1,3)-W-T-R-Q-R-Y-NH2.C18DA-gGlu-gGlu-gGlu-gGlu-gGlu-gGlu-eLys(1,2)]
- solubility at 2 h [1]: 3100 µg/mL
- EC50 [2, 4]: 136 nM
- EC50 [3]: 1.7 nM

SMILES: CC[C@H](C)[C@H](NC(=O)[C@H](CC(C)C)NC(=O)[C@H](Cc1c[nH]cn1)NC(=O)[C@H](CCCNC(=N)N)NC(=O)[C@@H](NC(=O)[C@H](Cc1ccccc1)NC(=O)[C@H](C)NC(=O)C(C)(C)NC(=O)[C@H](CCC(N)=O)NC(=O)[C@H](C)NC(=O)[C@H](CCC(N)=O)NC(=O)[C@H](CCCCN)NC(=O)[C@H](CCC(=O)O)NC(=O)[C@H](CC(C)C)NC(=O)C(C)(C)NC(=O)[C@@H](NC(=O)[C@H](CO)NC(=O)[C@H](Cc1ccc(O)cc1)NC(=O)[C@H](CC(=O)O)NC(=O)[C@H](CO)NC(=O)[C@@H](NC(=O)[C@H](Cc1ccccc1)NC(=O)[C@@H](NC(=O)CNC(=O)[C@H](CCC(=O)O)NC(=O)C(C)(C)NC(=O)[C@@H](N)Cc1ccc(O)cc1)[C@@H](C)O)[C@@H](C)O)[C@@H](C)CC)C(C)C)C(=O)N[C@@H](CC(N)=O)C(=O)N[C@@H](CCCCNC(=O)CC[C@H](NC(=O)CC[C@H](NC(=O)CC[C@H](NC(=O)CC[C@H](NC(=O)CC[C@H](NC(=O)CC[C@H](NC(=O)[C@H]1CC[C@H](CNC(=O)CCCCCCCCCCCCCCCCC(=O)O)CC1)C(=O)O)C(=O)O)C(=O)O)C(=O)O)C(=O)O)C(=O)O)C(=O)NC(C)(C)C(=O)N[C@H](C(=O)N[C@@H](CCCNC(=N)N)C(=O)N[C@@H](CCC(N)=O)C(=O)N[C@@H](CCCNC(=N)N)C(=O)N[C@@H](Cc1ccc(O)cc1)C(N)=O)[C@@H](C)O [Compound 31, Y-Aib-E-G-T-F-T-S-D-Y-S-I-Aib-L-E-K-Q-A-Q-Aib-A-F-V-R-H-L-I-N-K(1,3)-Aib-T-R-Q-R-Y-NH2.C18DA-TRX-gGlu-gGlu-gGlu-gGlu-gGlu-gGlu(1,2)]
- solubility at 2 h [1]: 4300 µg/mL
- EC50 [2, 4]: 131 nM
- EC50 [3]: 0.6 nM

SMILES: CC[C@H](C)[C@H](NC(=O)[C@H](CO)NC(=O)[C@H](Cc1ccc(O)cc1)NC(=O)[C@H](CC(=O)O)NC(=O)[C@H](CO)NC(=O)[C@@H](NC(=O)[C@H](Cc1ccccc1)NC(=O)[C@@H](NC(=O)CNC(=O)[C@H](CCC(=O)O)NC(=O)C(C)(C)NC(=O)[C@@H](N)Cc1ccc(O)cc1)[C@@H](C)O)[C@@H](C)O)C(=O)N[C@@H](C)C(=O)N[C@@H](CC(C)C)C(=O)N[C@@H](CCC(=O)O)C(=O)N[C@@H](CCCCN)C(=O)N[C@@H](CCC(N)=O)C(=O)N[C@@H](C)C(=O)N[C@@H](CCC(N)=O)C(=O)NC(C)(C)C(=O)N[C@@H](C)C(=O)N[C@@H](Cc1ccccc1)C(=O)N[C@H](C(=O)N[C@@H](CCCNC(=N)N)C(=O)N[C@@H](Cc1c[nH]cn1)C(=O)N[C@@H](CC(C)C)C(=O)N[C@H](C(=O)N[C@@H](CC(N)=O)C(=O)N[C@@H](CCCCNC(=O)[C@@H](N)CCCCNC(=O)CC[C@H](NC(=O)CC[C@H](NC(=O)CC[C@H](NC(=O)CC[C@H](NC(=O)CC[C@H](NC(=O)CC[C@H](NC(=O)CCCCCCCCCCCCCCCCC(=O)O)C(=O)O)C(=O)O)C(=O)O)C(=O)O)C(=O)O)C(=O)O)C(=O)NC(C)(C)C(=O)N[C@H](C(=O)N[C@@H](CCCNC(=N)N)C(=O)N[C@@H](CCC(N)=O)C(=O)N[C@@H](CCCNC(=N)N)C(=O)N[C@@H](Cc1ccc(O)cc1)C(N)=O)[C@@H](C)O)[C@@H](C)CC)C(C)C [Compound 165, Y-Aib-E-G-T-F-T-S-D-Y-S-I-A-L-E-K-Q-A-Q-Aib-A-F-V-R-H-L-I-N-K(1,3)-Aib-T-R-Q-R-Y-NH2.C18DA-gGlu-gGlu-gGlu-gGlu-gGlu-gGlu-eLys(1,2)]
- solubility at 2 h [1]: 5000 µg/mL
- EC50 [2, 5]: 17.1 nM
- EC50 [3]: 0.3 nM

SMILES: CC[C@H](C)[C@H](NC(=O)[C@H](CC(C)C)NC(=O)[C@H](Cc1c[nH]cn1)NC(=O)[C@H](CCCNC(=N)N)NC(=O)[C@@H](NC(=O)[C@H](Cc1ccccc1)NC(=O)[C@H](C)NC(=O)C(C)(C)NC(=O)[C@H](CCC(N)=O)NC(=O)[C@H](C)NC(=O)[C@H](CCC(N)=O)NC(=O)[C@H](CCCCN)NC(=O)[C@H](CCC(=O)O)NC(=O)[C@H](CC(C)C)NC(=O)C(C)(C)NC(=O)[C@@H](NC(=O)[C@H](CO)NC(=O)[C@H](Cc1ccc(O)cc1)NC(=O)[C@H](CC(=O)O)NC(=O)[C@H](CO)NC(=O)[C@@H](NC(=O)[C@H](Cc1ccccc1)NC(=O)[C@@H](NC(=O)CNC(=O)[C@H](CCC(=O)O)NC(=O)C(C)(C)NC(=O)[C@@H](N)Cc1ccc(O)cc1)[C@@H](C)O)[C@@H](C)O)[C@@H](C)CC)C(C)C)C(=O)N[C@@H](CC(N)=O)C(=O)N[C@@H](CCCCNC(=O)CC[C@H](NC(=O)CC[C@H](NC(=O)CC[C@H](NC(=O)CC[C@H](NC(=O)CC[C@H](NC(=O)CCCCCCCCCCCCCCCCCCC(=O)O)C(=O)O)C(=O)O)C(=O)O)C(=O)O)C(=O)O)C(=O)NC(C)(C)C(=O)N[C@H](C(=O)N[C@@H](CCCNC(=N)N)C(=O)N[C@@H](CCC(N)=O)C(=O)N[C@@H](CCCNC(=N)N)C(=O)N[C@@H](Cc1ccc(O)cc1)C(N)=O)[C@@H](C)O [Compound 176, Y-Aib-E-G-T-F-T-S-D-Y-S-I-Aib-L-E-K-Q-A-Q-Aib-A-F-V-R-H-L-I-N-K(1,3)-Aib-T-R-Q-R-Y-NH2.C20DA-gGlu-gGlu-gGlu-gGlu-gGlu(1,2)]
- solubility at 2 h [1]: 5300 µg/mL
- EC50 [2, 5]: 32.8 nM
- EC50 [3]: 0.6 nM
